According to patent US11696928B2, “Compounds and use thereof in the expansion of stem cells and/or progenitor cells” (UNIVERSITE DE MONTREAL, priority 2017, dated 2023):

Experiments:
AhR = target: T1, AhR (Homo sapiens, UniProt P35869); experiment: Inhibition of AhR-mediated gene transcription (HEK-XRE 11.1 luciferase reporter, MeBIO induction); format: cell-based; conditions: HEK-XRE 11.1 cells, MeBIO 0.1 nM, luminescence after 24 hours
T1 construct: One of the resultant clones was named HEK-XRE 11.1, and used in the reporter gene assays; endogenous in cells; host or cells: HEK-XRE 11.1 (HEK cells stably carrying the AhR-responsive luciferase reporter X4-4.27 and phRL-CMV)
T1 sequence (P35869 11-848): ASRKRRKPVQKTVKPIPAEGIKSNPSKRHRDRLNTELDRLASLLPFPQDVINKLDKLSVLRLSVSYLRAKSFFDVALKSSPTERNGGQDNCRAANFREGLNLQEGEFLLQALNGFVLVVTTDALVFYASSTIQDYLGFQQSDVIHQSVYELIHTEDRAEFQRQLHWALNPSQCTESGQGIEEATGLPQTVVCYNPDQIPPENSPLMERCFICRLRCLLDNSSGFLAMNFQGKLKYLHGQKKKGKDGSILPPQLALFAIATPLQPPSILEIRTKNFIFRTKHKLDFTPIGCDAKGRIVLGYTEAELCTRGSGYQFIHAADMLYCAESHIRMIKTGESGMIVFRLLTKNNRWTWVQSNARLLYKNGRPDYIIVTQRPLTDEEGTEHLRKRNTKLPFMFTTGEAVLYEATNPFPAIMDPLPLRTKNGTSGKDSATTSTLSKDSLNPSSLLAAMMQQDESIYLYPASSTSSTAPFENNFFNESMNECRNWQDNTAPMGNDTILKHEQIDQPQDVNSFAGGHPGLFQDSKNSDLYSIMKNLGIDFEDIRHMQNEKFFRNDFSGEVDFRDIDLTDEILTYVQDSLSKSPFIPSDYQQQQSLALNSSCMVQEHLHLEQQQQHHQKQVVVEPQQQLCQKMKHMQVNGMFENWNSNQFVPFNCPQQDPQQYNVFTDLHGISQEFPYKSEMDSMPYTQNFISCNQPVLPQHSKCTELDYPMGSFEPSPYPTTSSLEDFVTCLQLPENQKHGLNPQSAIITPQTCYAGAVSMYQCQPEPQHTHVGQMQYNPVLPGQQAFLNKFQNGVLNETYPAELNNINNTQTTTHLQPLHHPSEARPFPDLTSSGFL
Experimental: HEK cells line was transfected with an AhR-responsive firefly luciferase reporter gene X4-4.27 and the stable transfectants generated were again transfected with phRL-CMV (a Renilla luciferase expression vector; Promega) along with pBAsi-hU6 Pur DNA (a plasmid carrying the puromycin-resistant gene; TaKaRa, Shiga, Japan), and maintained in the presence of both hygromycin B and puromycin (2 mg/mL). One of the resultant clones was named HEK-XRE 11.1, and used in the reporter gene assays.
HEK-XRE 11.1 cells were plated in 384-well plates at a density of 25,000 cells in 50 uL volume per well. The induction of ARh pathway was done by addition of MeBIO at 0.1 nM concentration. ARh antagonist compounds were then added to seeded cells in serial dilutions (8 dilutions, 1:[…] down to 5 nM) in duplicate wells. Renilla expression was not used as internal control. On each plate, Compound 1001 and SR1 were added as dose control (8 dilutions, 1:3, 5 mM down to 2.5 nM for SR1 and 2 mM down to 1 nM for compound 1001). Luminescence activity was evaluated after 24 hours culture using Lumi-384-CellTiterGlo-Corning protocol. Dose-response curves were generated using nonlinear regression in Excel.

[1] = test system: Human CD34+ cord blood (CB) cells; experiment: CD34+ activity assessment (7-day expansion of pre-expanded CD34+ cells, flow cytometry); format: cell-based; conditions: concentration at which compound/vehicle ratio of CD34+ cell number is >= 1.5, 7 days, with 35 nM UM0128171
Experimental: Human CD34+ cord blood (CB) cells were isolated from fresh units using RosetteSep™ 0034 pre-enrichment cocktail followed by CD34 positive selection using EasySep Kit™ (StemCell Technologies). The cells were then pre-expanded in bulk, by culturing at 37° C. for 6 days in HSC expansion media consisting of StemSpan ACF (StemCell Technologies) supplemented with 100 ng/mL Stem Cell Factor (SCF, Shenandoah), 100 ng/mL FMS-like Tyrosine Kinase 3 Ligand (FLT3L, Shenandoah), 50 ng/mL Thrombopoietin (TPO, Shenandoah), 2 mM GlutaMAX™ (Invitrogen), 10 μg/mL low density lipoproteins (LDL, StemCell Technologies), 10 μg/mL Ciprofloxacin and 35 nM UM0128171. […] Following the pre-expansion, cells were harvested, aliquoted and frozen until use.
For each activity assessment, CD34+ pre-expanded cells (approximately 2000 per well in a 384-well plate) were cultured in HSC expansion media, in the presence of 35 nM UM0128171. Compounds were serially diluted (1/2) in DMSO (10 dilutions per compound) and added to the cells in order to achieve a 1/1000 final dilution. StemRegenin1 (SR1) and/or Compound 1001 were included in all experiments as controls to monitor assay performance. The plate was incubated at 37° C. for 7 days in static conditions (i.e. no shaking and no addition of media). Flow cytometry analysis was performed at the end of the 7-day expansion. Cells were stained with PE-labeled anti-human CD45RA (BD Biosciences) and APC-labeled anti-human CD34 (BD Biosciences) and analyzed using Intellicyt IQue cytometer equipped with ForeCyt software. Gates were drawn around the populations of interest to obtain cell numbers and relative proportions. The EC1.5 value, which is the concentration at which the compound/vehicle ratio is greater or equal to 1.5, was calculated by plotting the CD34+ cell number against concentrations (log-scale) in a 4-PL curve and fitting the curve using IDBS XLfit (set model 251) in Microsoft Excel.

Compound | IC50 (AhR; Table 1) [nM] | EC1.5 ([1]; Table 1) [nM] | EC1.5 ([1]; Table 2) [nM] | IC50 (AhR; Table 2) [nM]
Nc1c(C(=O)Nc2ccccc2)sc2ncc(Br)cc12 [Compound 1003] | < 50 |  |  | 
Nc1c(C(=O)Nc2ccccc2)sc2ncc(Cl)cc12 [Compound 1004] | < 50 | 100 to 1000 |  | 
Nc1c(C(=O)Nc2ccc(F)cc2)sc2nc3c(cc12)CCC3 [Compound 1002] | < 50 |  |  | 
Nc1c(C(=O)Nc2ccc(-c3ccncc3)cc2)sc2ncc(C(F)(F)F)cc12 [Compound 1056] | 50 to 500 | >5000 |  | 
Cc1cnc2sc(C(=O)Nc3ccc(C(F)(F)F)cc3)c(N)c2c1 [Compound 1137] | < 50 | <100 |  | 
Nc1c(C(=O)Nc2cccnc2)sc2nc3c(cc12)CCC3 [Compound 1006] | 50 to 500 | 1000 to 5000 |  | 
C#Cc1cnc2sc(C(=O)Nc3ccncc3)c(N)c2c1 [Compound 1020] | 50 to 500 |  |  | 
Cc1ccc(NC(=O)c2sc3ncc(C(F)(F)F)cc3c2N)cn1 [Compound 1070] | 50 to 500 | >5000 |  | 
Nc1c(C(=O)Nc2ccc(F)cc2)sc2cnc(C(F)(F)F)cc12 [Compound 1088] | < 50 | >5000 |  | 
CCc1cnc2sc(C(=O)Nc3ccccc3)c(N)c2c1 [Compound 1112] | 50 to 500 |  |  | 
Nc1c(C(=O)Nc2cccc(-c3ccccc3)c2)sc2ncc(C(F)(F)F)cc12 [Compound 1059] | 50 to 500 | 1000 to 5000 |  | 
Nc1c(C(=O)Nc2ccc(F)cc2)oc2ncc(C(F)(F)F)cc12 [Compound 1154] |  |  | 100 to 1000 | < 50
CSc1ccc(NC(=O)c2sc3ccc(C(F)(F)F)cc3c2N)cc1 [Compound 1148] | 50 to 500 | 100 to 1000 |  | 
Nc1c(C(=O)Nc2ccc(C(F)(F)F)cc2)sc2ncc(C(F)(F)F)cc12 [Compound 1061] | < 50 | <100 |  | 
Nc1c(C(=O)Nc2ccc(F)cc2)sc2ccc(C(F)(F)F)cc12 [Compound 1089] | < 50 | 100 to 1000 |  | 
CN(C)c1ccc(NC(=O)c2sc3ncc(C(F)(F)F)cc3c2N)cc1 [Compound 1126] | 50 to 500 | 1000 to 5000 |  | 
Nc1c(C(=O)Nc2ccc(Cl)cc2)sc2ncc(C(F)(F)F)cc12 [Compound 1045] | < 50 | <100 |  | 
Cc1ccc(NC(=O)c2sc3cnc(C(F)(F)F)cc3c2N)cc1 [Compound 1052] | 50 to 500 | 1000 to 5000 |  | 
Cc1ccc(NC(=O)c2sc3ccc(C(F)(F)F)cc3c2N)cc1 [Compound 1065] | 50 to 500 | 100 to 1000 |  | 
Cc1ccc(NC(=O)c2sc3ncc(C(F)(F)F)cc3c2N)cc1 [Compound 1047] | < 50 | 100 to 1000 |  | 
Cc1cnc2sc(C(=O)Nc3ccccc3)c(N)c2c1 [Compound 1009] | < 50 |  |  | 
CCOc1ccc(NC(=O)c2sc3ncc(C(F)(F)F)cc3c2N)cc1 [Compound 1122] | < 50 | <100 |  | 
Nc1c(C(=O)Nc2ccccc2)sc2ccc(C(F)(F)F)cc12 [Compound 1034] | < 50 | 100 to 1000 |  | 
N#CCc1ccc(NC(=O)c2sc3ncc(C(F)(F)F)cc3c2N)cc1 [Compound 1038] | < 50 | >5000 |  | 

Compound | IC50 (AhR; Table 1) [nM] | EC1.5 ([1]; Table 1) [nM] | EC1.5 ([1]; Table 2) [nM] | IC50 (AhR; Table 2) [nM]
Nc1c(C(=O)Nc2ccncc2)sc2ncc(C(F)(F)F)cc12 [Compound 1013] | > 500 | 100 to 1000 |  | 
Nc1c(C(=O)Nc2ccncc2)sc2ncc(Br)cc12 [Compound 1012] | 50 to 500 |  |  | 
Nc1c(C(=O)Nc2ccccc2)sc2ccc(C(F)(F)F)nc12 [Compound 1027] | < 50 | >5000 |  | 
Nc1c(C(=O)Nc2ccc(F)cn2)sc2ncc(C(F)(F)F)cc12 [Compound 1128] |  | 100 to 1000 |  | 
Nc1c(C(=O)Nc2ccc(Cl)cc2)sc2ccc(C(F)(F)F)cc12 [Compound 1066] | < 50 | 100 to 1000 |  | 
Nc1c(C(=O)Nc2cccc(Br)c2)sc2ncc(C(F)(F)F)cc12 [Compound 1036] | < 50 | 100 to 1000 |  | 
Nc1c(C(=O)Nc2ccncc2)sc2ccc(C(F)(F)F)nc12 [Compound 1028] | 50 to 500 | >5000 |  | 
Nc1c(C(=O)Nc2cccnc2)sc2ncc(C(F)(F)F)cc12 [Compound 1015] | > 500 | 100 to 1000 |  | 
Cc1cc(NC(=O)c2sc3ncc(C(F)(F)F)cc3c2N)ccc1F [Compound 1076] | 50 to 500 | 100 to 1000 |  | 
Cc1ccc2sc(C(=O)Nc3ccc(Br)cc3)c(N)c2c1 [Compound 1132] | 50 to 500 | >5000 |  | 
COc1ccc(NC(=O)c2sc3ccc(C(F)(F)F)cc3c2N)cc1 [Compound 1083] | 50 to 500 | <100 |  | 
Nc1c(C(=O)Nc2ccc(Cl)c(Cl)c2)sc2ncc(C(F)(F)F)cc12 [Compound 1095] | 50 to 500 | 100 to 1000 |  | 
CC(C)c1cnc2sc(C(=O)Nc3ccccc3)c(N)c2c1 [Compound 1103] | < 50 |  |  | 
CCCc1cnc2sc(C(=O)Nc3ccccc3)c(N)c2c1 [Compound 1134] | < 50 |  |  | 
Nc1c(C(=O)Nc2ccc(Br)cc2)sc2cnc(C(F)(F)F)cc12 [Compound 1049] | 50 to 500 |  |  | 
C=CCc1cnc2sc(C(=O)Nc3ccccc3)c(N)c2c1 [Compound 1111] | 50 to 500 |  |  | 
CSc1ccc(NC(=O)c2sc3ncc(C(F)(F)F)cc3c2N)cc1 [Compound 1133] | < 50 |  |  | 
Nc1c(C(=O)Nc2ccc(-c3cccnc3)cc2)sc2ncc(C(F)(F)F)cc12 [Compound 1055] | 50 to 500 |  |  | 
Cc1ccc2sc(C(=O)Nc3ccccc3)c(N)c2c1 [Compound 1118] | < 50 |  |  | 
CCc1cnc2sc(C(=O)Nc3ccncc3)c(N)c2c1 [Compound 1021] | 50 to 500 |  |  | 
Nc1c(C(=O)Nc2ccc(Br)cc2)sc2ncc(C(F)(F)F)cc12 [Compound 1037] | < 50 |  |  | 
Nc1c(C(=O)Nc2ccc(F)cc2)sc2ncc(C(F)(F)F)cc12 [Compound 1060] | < 50 |  |  | 
C=C(C)c1cnc2sc(C(=O)Nc3ccccc3)c(N)c2c1 [Compound 1090] | < 50 |  |  | 
Nc1c(C(=O)Nc2ccccc2)oc2nc3c(cc12)CCC3 [Compound 1153] |  |  |  | 50 to 500
